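Values below derive from 48-hour exposures of cells grown in 96-well plates, with endpoints linearly interpolated between the two concentrations bracketing the appropriate inhibition level. Definition used: TGI = concentration required for complete inhibition of growth.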
Tests used:
Assay in all cases: DTP human tumour cell line panel, 48 h
786-0 renal = tested on: 786-0 renal
BT-549 breast = tested on: BT-549 breast
CCRF-CEM leukemia = tested on: CCRF-CEM leukemia
HCT-116 colon = tested on: HCT-116 colon
LOX IMVI melanoma = tested on: LOX IMVI melanoma
MALME-3M melanoma = tested on: MALME-3M melanoma
MDA-MB-435 = tested on: MDA-MB-435
NCI-H522 lung = tested on: NCI-H522 lung
PC-3 prostate = tested on: PC-3 prostate
SF-268 CNS = tested on: SF-268 CNS
SN12C renal = tested on: SN12C renal
SR leukemia = tested on: SR leukemia
SW-620 colon = tested on: SW-620 colon
UACC-62 melanoma = tested on: UACC-62 melanoma

Row | SMILES | TGI (786-0 renal) | TGI (BT-549 breast) | TGI (CCRF-CEM leukemia) | TGI (HCT-116 colon) | TGI (LOX IMVI melanoma) | TGI (MALME-3M melanoma) | TGI (MDA-MB-435) | TGI (NCI-H522 lung) | TGI (PC-3 prostate) | TGI (SF-268 CNS) | TGI (SN12C renal) | TGI (SR leukemia) | TGI (SW-620 colon) | TGI (UACC-62 melanoma)
1 | O=c1[nH]c2nc3ccccc3c(=O)n2/c1=C/c1ccco1 | > 100 µM | > 100 µM | > 100 µM | > 100 µM | > 100 µM | > 100 µM | > 100 µM | > 100 µM | > 100 µM | > 100 µM | > 100 µM | > 100 µM | > 100 µM | > 100 µM
2 | COc1cc(CNc2nc3ccccc3nc2C(=O)O)cc(OC)c1OC | > 100 µM | > 100 µM | > 100 µM | > 100 µM | > 100 µM | > 100 µM | > 100 µM | > 100 µM | > 100 µM | > 100 µM | > 100 µM | > 100 µM | > 100 µM | > 100 µM
3 | Clc1ccc2oc(CCc3ccccc3)nc2c1 | > 100 µM | > 100 µM | > 100 µM | > 100 µM | > 100 µM | > 100 µM | > 100 µM | > 100 µM | > 100 µM | > 100 µM | > 100 µM | > 100 µM | > 100 µM | > 100 µM
4 | c1ccc(CC2COC(c3cccs3)=N2)cc1 (stereo not given) | > 100 µM | > 100 µM | > 100 µM | > 100 µM | > 100 µM | > 100 µM | > 100 µM | > 100 µM | > 100 µM | > 100 µM | > 100 µM | > 100 µM | > 100 µM | > 100 µM
5 | COc1ccc(C2=NOC(N)(c3ccc(OC)cc3)C2)cc1 (stereo not given) | > 100 µM | > 100 µM | > 100 µM | > 100 µM | > 100 µM | > 100 µM | > 100 µM | > 100 µM | > 100 µM | – | > 100 µM | > 100 µM | > 100 µM | > 100 µM
6 | N#Cc1nc(C#N)n(S(=O)(=O)c2ccccc2)c1NS(=O)(=O)c1ccccc1 | > 100 µM | > 100 µM | > 100 µM | > 100 µM | > 100 µM | > 100 µM | > 100 µM | > 100 µM | > 100 µM | > 100 µM | > 100 µM | > 100 µM | > 100 µM | > 100 µM
7 | Cc1cc2c(cc1C)[n+](=O)c(C(=O)c1ccccc1)c(C(F)(F)F)n2[O-] | 14.7 µM | 23.9 µM | 8.52 µM | 10.6 µM | 7.58 µM | 9.89 µM | 11.2 µM | 12.9 µM | 9.19 µM | 7.71 µM | 10.2 µM | 2.9 µM | 21.2 µM | 7.72 µM
8 | COc1ccc(CNc2cc(=O)n(C)c(=O)[nH]2)cc1 | > 100 µM | > 100 µM | > 100 µM | > 100 µM | > 100 µM | > 100 µM | > 100 µM | > 100 µM | > 100 µM | > 100 µM | > 100 µM | > 100 µM | > 100 µM | > 100 µM
9 | Nc1ccc(Nc2cc(=O)[nH]c(=O)[nH]2)cc1Cl | > 100 µM | > 100 µM | > 100 µM | > 100 µM | > 100 µM | > 100 µM | > 100 µM | > 100 µM | > 100 µM | > 100 µM | > 100 µM | > 100 µM | > 100 µM | > 100 µM
10 | CC(C)/C(Cl)=N/OC(=O)Nc1ccc(Cl)c(Cl)c1 | 3.46 µM | 9.62 µM | 3.91 µM | 4.65 µM | 3.16 µM | 4.33 µM | 15.7 µM | 3.25 µM | 33.1 µM | 34.8 µM | 3.42 µM | > 100 µM | 4.35 µM | 26.5 µM
11 | CC1(C)CC(=O)c2c(nc3c4c([nH]c(-c5ccc(Br)cc5)c24)CC(C)(C)C3)C1 | 91 µM | > 100 µM | > 100 µM | > 100 µM | > 100 µM | > 100 µM | > 100 µM | > 100 µM | > 100 µM | > 100 µM | > 100 µM | 59.1 µM | > 100 µM | > 100 µM
12 | CCC1C(c2ccccc2O)c2cc3c(cc2OC1N1CCOCC1)OCO3 (stereo not given) | 43.9 µM | 29.3 µM | 32.7 µM | 26.5 µM | 30.2 µM | 26 µM | 28.9 µM | 28 µM | 26 µM | 31.8 µM | 29.4 µM | 30.8 µM | 33 µM | 27.1 µM
13 | CN(CCCNC(=O)c1cc(-c2ccccc2)nc2ccccc12)CCCNC(=O)c1cc(-c2ccccc2)nc2ccccc12 | 3.18 µM | 26.8 µM | 17.6 µM | 3.33 µM | 3.56 µM | 3.39 µM | 3.17 µM | 3.51 µM | 13 µM | 14 µM | 17.4 µM | 12.3 µM | 3.38 µM | 4.31 µM
14 | COC(=O)C1CCC(=O)N1C(c1ccc2c(c1)OCO2)c1cc(OC)c(OC)c(OC)c1 (stereo not given) | > 100 µM | > 100 µM | > 100 µM | > 100 µM | > 100 µM | > 100 µM | > 100 µM | 24.4 µM | > 100 µM | > 100 µM | > 100 µM | > 100 µM | > 100 µM | > 100 µM
